Assay results as given in US8450266B2 (Ipsen Pharma S.A.S., priority 2008, dated 2013).
Where a SMILES comes first, the peptide text is derived from it. [ ]: non-standard residue; d: D form. The star is where a group is joined. Cyclohexanecarbonyl = O=C(C1CCCCC1)*; Decanoyl = CCCCCCCCCC(=O)*; Orn = NCCC[C@H](N)C(=O)O; X1 = CCCN1C(=O)CC(*)C1=O

How the values were obtained:
[1] = Human plasma half-life assay (LC-MS); assay type: in vitro ADME; settings: incubated at 37° C., read-out: Human Plasma T½ (converted)
Outline: (§1)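 Aliquots taken from human or rat plasma at time points up to 72 h, quenched with formic acid and acetonitrile, centrifuged. Supernatant analyzed by LC-MS (ESI, positive ion, full scan) on a C8 column with a water/acetonitrile 1% formic acid gradient.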

[2] = Rat plasma half-life assay (LC-MS); assay type: in vitro ADME; settings: incubated at 37° C., read-out: Rat Plasma T½ (converted)
Outline: as §1

| Compound | half-life at 0.1 mg/mL [1] [h] | half-life at 0.1 mg/mL [2] [h] | half-life at 0.1 mg/ml [1] [h] | half-life at 0.1 mg/ml [2] [h] |
| --- | --- | --- | --- | --- |
| CC[C@H](C)[C@H](NC(=O)[C@H](CO)NC(=O)[C@H](Cc1ccc(O)cc1)NC(=O)[C@H](CC(=O)O)NC(=O)[C@H](CO)NC(=O)C1(NC(=O)[C@H](Cc2ccccc2)NC(C)=O)CCCCC1)C(=O)N[C@@H](C)C(=O)N[C@@H](CCSC)C(=O)N[C@@H](CC(=O)O)C(=O)N[C@@H](CCCCN)C(=O)N[C@H](C(=O)N[C@@H](Cc1c[nH]cn1)C(=O)N[C@@H](CCC(N)=O)C(=O)N[C@@H](CCC(N)=O)C(=O)N[C@@H](CC(=O)O)C(=O)N[C@@H](Cc1ccccc1)C(=O)N[C@H](C(=O)N[C@@H](CC(N)=O)C(=O)N[C@@H](Cc1c[nH]c2ccccc12)C(=O)N[C@@H](CC(C)C)C(=O)N[C@@H](CC(C)C)C(=O)N[C@@H](C)C(=O)N[C@@H](CCC(N)=O)C(=O)N[C@@H](CCCCN)C(N)=O)C(C)C)[C@@H](C)CC [Example 32, (Ac-Phe^6, A6c^7)hGIP(6-30)-NH2] | 24.1 | 60.3 |  |  |
| CCCN1C(=O)CC(SC[C@H](NC(=O)[C@H](CCCCN)NC(=O)[C@H](CCC(N)=O)NC(=O)[C@H](C)NC(=O)[C@H](CC(C)C)NC(=O)[C@H](CC(C)C)NC(=O)[C@H](Cc2c[nH]c3ccccc23)NC(=O)[C@H](CC(N)=O)NC(=O)[C@@H](NC(=O)[C@H](Cc2ccccc2)NC(=O)[C@H](CC(=O)O)NC(=O)[C@H](CCC(N)=O)NC(=O)[C@H](CCC(N)=O)NC(=O)[C@H](Cc2c[nH]cn2)NC(=O)[C@@H](NC(=O)[C@H](CCCCN)NC(=O)[C@H](CC(=O)O)NC(=O)[C@H](CCSC)NC(=O)[C@H](C)NC(=O)[C@@H](NC(=O)[C@H](CO)NC(=O)[C@H](Cc2ccc(O)cc2)NC(=O)[C@H](CC(=O)O)NC(=O)[C@H](CO)NC(=O)C2(NC(=O)[C@H](Cc3ccccc3)NC(C)=O)CCCCC2)[C@@H](C)CC)[C@@H](C)CC)C(C)C)C(N)=O)C1=O (stereo partly shown) [Example 33, [Ac-Phe^6, A6c^7, Cys(Psu)^31]hGIP(6-31)-NH2] | 13.6 | 10.2 |  |  |
| CCCN1C(=O)CC(SC[C@H](NC(=O)[C@H](CCCCN)NC(=O)[C@H](CCC(N)=O)NC(=O)[C@H](C)NC(=O)[C@H](CC(C)C)NC(=O)[C@H](CC(C)C)NC(=O)[C@H](Cc2c[nH]c3ccccc23)NC(=O)[C@H](CC(N)=O)NC(=O)[C@@H](NC(=O)[C@H](Cc2ccccc2)NC(=O)[C@H](CC(=O)O)NC(=O)[C@H](CCC(N)=O)NC(=O)[C@H](CCC(N)=O)NC(=O)[C@H](Cc2c[nH]cn2)NC(=O)[C@@H](NC(=O)[C@H](CCCCN)NC(=O)[C@H](CC(=O)O)NC(=O)[C@H](CCSC)NC(=O)[C@H](C)NC(=O)[C@@H](NC(=O)[C@H](CO)NC(=O)[C@H](Cc2ccc(O)cc2)NC(=O)[C@H](CC(=O)O)NC(=O)[C@H](CO)NC(=O)C2(NC(=O)[C@@H](N)Cc3ccccc3)CCCCC2)[C@@H](C)CC)[C@@H](C)CC)C(C)C)C(N)=O)C1=O (stereo partly shown) [Example 34, [A6c^7, Cys(Psu)^31]hGIP(6-31)-NH2] | 11.3 | 7.4 |  |  |
| CCCC[C@H](NC(=O)[C@H](C)NC(=O)[C@@H](NC(=O)[C@H](CO)NC(=O)[C@H](Cc1ccc(O)cc1)NC(=O)[C@H](CC(=O)O)NC(=O)[C@H](CO)NC(=O)C1(NC(=O)[C@@H](N)Cc2ccccc2)CCCC1)[C@@H](C)CC)C(=O)N[C@@H](CC(=O)O)C(=O)N[C@@H](CCCCN)C(=O)N[C@H](C(=O)N[C@@H](Cc1c[nH]cn1)C(=O)N[C@@H](CCC(N)=O)C(=O)N[C@@H](CCC(N)=O)C(=O)N[C@@H](CC(=O)O)C(=O)N[C@@H](Cc1ccccc1)C(=O)N[C@H](C(=O)N[C@@H](CC(N)=O)C(=O)N[C@@H](Cc1c[nH]c2ccccc12)C(=O)N[C@@H](CC(C)C)C(=O)N[C@@H](CC(C)C)C(=O)N[C@@H](C)C(=O)N[C@@H](CCC(N)=O)C(=O)N[C@@H](CCCCN)C(N)=O)C(C)C)[C@@H](C)CC [Example 35, (A5c^7, Nle^14)hGIP(6-30)-NH2] (HELM PEPTIDE1{F.[O=C(C1(N[*:1])CCCC1)[*:2]].S.D.Y.S.I.A.[Nle].D.K.I.H.Q.Q.D.F.V.N.W.L.L.A.Q.K.[am]}$$$$V2.0) | 16.5 | 23 |  |  |
| CCCC[C@H](NC(=O)[C@H](C)NC(=O)[C@@H](NC(=O)[C@H](CO)NC(=O)[C@H](Cc1ccc(O)cc1)NC(=O)[C@H](CC(=O)O)NC(=O)[C@H](CO)NC(=O)C1(NC(=O)[C@@H](N)Cc2ccccc2)CCCCC1)[C@@H](C)CC)C(=O)N[C@@H](CC(=O)O)C(=O)N[C@@H](CCCCN)C(=O)N[C@H](C(=O)N[C@@H](Cc1c[nH]cn1)C(=O)N[C@@H](CCC(N)=O)C(=O)N[C@@H](CCC(N)=O)C(=O)N[C@@H](CC(=O)O)C(=O)N[C@@H](Cc1ccccc1)C(=O)N[C@H](C(=O)N[C@@H](CC(N)=O)C(=O)N[C@@H](Cc1c[nH]c2ccccc12)C(=O)N[C@@H](CC(C)C)C(=O)N[C@@H](CC(C)C)C(=O)N[C@@H](C)C(=O)N[C@@H](CCC(N)=O)C(=O)N[C@@H](CCCCN)C(N)=O)C(C)C)[C@@H](C)CC [Example 36, (A6c^7, Nle^14)hGIP(6-30)-NH2] (HELM PEPTIDE1{F.[O=C(C1(N[*:1])CCCCC1)[*:2]].S.D.Y.S.I.A.[Nle].D.K.I.H.Q.Q.D.F.V.N.W.L.L.A.Q.K.[am]}$$$$V2.0) | 21.9 | 21.6 |  |  |
| CCCC[C@H](NC(=O)[C@H](C)NC(=O)[C@@H](NC(=O)C(C)(C)NC(=O)[C@H](Cc1ccc(O)cc1)NC(=O)[C@H](CC(=O)O)NC(=O)[C@H](CO)NC(=O)[C@@H](NC(=O)[C@@H](N)Cc1ccccc1)[C@@H](C)CC)[C@@H](C)CC)C(=O)N[C@@H](CC(=O)O)C(=O)N[C@@H](CCCCN)C(=O)N[C@H](C(=O)N[C@@H](Cc1c[nH]cn1)C(=O)N[C@@H](CCC(N)=O)C(=O)N[C@@H](CCC(N)=O)C(=O)N[C@@H](CC(=O)O)C(=O)N[C@@H](Cc1ccccc1)C(=O)N[C@H](C(=O)N[C@@H](CC(N)=O)C(=O)N[C@@H](Cc1c[nH]c2ccccc12)C(=O)N[C@@H](CC(C)C)C(=O)N[C@@H](CC(C)C)C(=O)N[C@@H](C)C(=O)N[C@@H](CCC(N)=O)C(=O)N[C@@H](CCCCN)C(N)=O)C(C)C)[C@@H](C)CC [Example 37, (Aib^11, Nle^14)hGIP(6-30)-NH2] (HELM PEPTIDE1{F.I.S.D.Y.[Aib].I.A.[Nle].D.K.I.H.Q.Q.D.F.V.N.W.L.L.A.Q.K.[am]}$$$$V2.0) | 13.5 | 28.5 |  |  |
| CCCCCCCCCC(=O)NCCC[C@H](NC(=O)[C@H](CCCCN)NC(=O)[C@H](CCC(N)=O)NC(=O)[C@H](C)NC(=O)[C@H](CC(C)C)NC(=O)[C@H](CC(C)C)NC(=O)[C@H](Cc1c[nH]c2ccccc12)NC(=O)[C@H](CC(N)=O)NC(=O)[C@@H](NC(=O)[C@H](Cc1ccccc1)NC(=O)[C@H](CC(=O)O)NC(=O)[C@H](CCC(N)=O)NC(=O)[C@H](CCC(N)=O)NC(=O)[C@H](Cc1c[nH]cn1)NC(=O)[C@@H](NC(=O)[C@H](CCCCN)NC(=O)[C@H](CC(=O)O)NC(=O)[C@H](CCSC)NC(=O)[C@H](C)NC(=O)[C@@H](NC(=O)[C@H](CO)NC(=O)[C@H](Cc1ccc(O)cc1)NC(=O)[C@H](CC(=O)O)NC(=O)[C@@H](N)CO)[C@@H](C)CC)[C@@H](C)CC)C(C)C)C(=O)N[C@@H](CCCCN)C(=O)N[C@@H](CCCCN)C(=O)N[C@@H](CC(N)=O)C(=O)N[C@@H](CC(=O)O)C(=O)N[C@@H](Cc1c[nH]c2ccccc12)C(=O)N[C@@H](CCCCN)C(=O)N[C@@H](Cc1c[nH]cn1)C(=O)N[C@@H](CC(N)=O)C(=O)N[C@H](C(=O)N[C@H](C(=O)N[C@@H](CCC(N)=O)C(=O)O)[C@@H](C)O)[C@@H](C)CC [Example 39, [Orn^31(N-C(O)-(CH2)8-CH3)]hGIP(8-42)-OH] (H-SDYSIAMDKIHQQDFVNWLLAQK[Orn](Decanoyl)KKNDWKHNITQ-OH) |  |  | 31.1 | 13.7 |
| CCCN1C(=O)CC(SC[C@H](NC(=O)[C@H](CCCCN)NC(=O)[C@H](CCC(N)=O)NC(=O)[C@H](C)NC(=O)[C@H](CC(C)C)NC(=O)[C@H](CC(C)C)NC(=O)[C@H](Cc2c[nH]c3ccccc23)NC(=O)[C@H](CC(N)=O)NC(=O)[C@@H](NC(=O)[C@H](Cc2ccccc2)NC(=O)[C@H](CC(=O)O)NC(=O)[C@H](CCC(N)=O)NC(=O)[C@H](CCC(N)=O)NC(=O)[C@H](Cc2c[nH]cn2)NC(=O)[C@@H](NC(=O)[C@H](CCCCN)NC(=O)[C@H](CC(=O)O)NC(=O)[C@H](CCSC)NC(=O)[C@H](C)NC(=O)[C@@H](NC(=O)[C@H](CO)NC(=O)[C@H](Cc2ccc(O)cc2)NC(=O)[C@H](CC(=O)O)NC(=O)[C@H](CO)NC(=O)C2CCCCC2)[C@@H](C)CC)[C@@H](C)CC)C(C)C)C(=O)N[C@@H](CCCCN)C(=O)N[C@@H](CCCCN)C(=O)N[C@@H](CC(N)=O)C(=O)N[C@@H](CC(=O)O)C(=O)N[C@@H](Cc2c[nH]c3ccccc23)C(=O)N[C@@H](CCCCN)C(=O)N[C@@H](Cc2c[nH]cn2)C(=O)N[C@@H](CC(N)=O)C(=O)N[C@H](C(=O)N[C@H](C(=O)N[C@@H](CCC(N)=O)C(=O)O)[C@@H](C)O)[C@@H](C)CC)C1=O (stereo partly shown) [Example 40, [Chc-Ser^8, Cys(Psu)^31]hGIP(8-42)-OH] (Cyclohexanecarbonyl-SDYSIAMDKIHQQDFVNWLLAQKC(X1)KKNDWKHNITQ-OH) | 4.1 | 6.9 |  |  |
